This passage reports EC50 results from US20140378463A1, “IP receptor agonist heterocyclic compounds” (NOVARTIS AG, priority 2012, published 2014).

The target in the assay is T1, IP receptor (Homo sapiens, UniProt P43119).
T1 construct: expressed in transfected cells; host or cells: CHO cells stably expressing the IP receptor (CHO-IP)
T1 sequence (P43119 whole entry): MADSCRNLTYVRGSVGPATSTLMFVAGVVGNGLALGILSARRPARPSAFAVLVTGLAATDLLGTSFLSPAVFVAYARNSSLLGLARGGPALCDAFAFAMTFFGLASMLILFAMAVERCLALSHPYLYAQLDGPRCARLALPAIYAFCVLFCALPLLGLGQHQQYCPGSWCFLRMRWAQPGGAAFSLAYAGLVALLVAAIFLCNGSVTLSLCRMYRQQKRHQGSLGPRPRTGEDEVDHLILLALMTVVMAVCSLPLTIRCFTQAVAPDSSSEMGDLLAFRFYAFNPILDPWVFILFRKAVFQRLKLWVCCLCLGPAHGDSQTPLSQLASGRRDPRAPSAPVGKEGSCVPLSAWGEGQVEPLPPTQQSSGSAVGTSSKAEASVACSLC
Description: cAMP accumulation in CHO cells stably expressing the IP receptor (CHO-IP), PerkinElmer AlphaScreen assay. Type of assay: cell-based. To be noted: 1 hour at room temperature, 4-parameter logistic fit. Here is the method: Activity of compounds at the IP receptor (IP receptor) is assessed by measuring cAMP accumulation in CHO cells stably expressing the IP receptor (CHO-IP) using the PerkinElmer AlphaScreen assay. This technology measures the endogenous production of cAMP, in a non-radioactive luminescence proximity homogenous assay. A biological reaction occurs between streptavidin coated donor beads, biotinylated cAMP and anti-cAMP acceptor beads, bringing the donor and acceptor beads close enough together so that upon excitation a fluorescence signal is produced. On production of endogenous cAMP, competition between the biotinylated cAMP and cellular-derived cAMP causes a reduction in the fluorescent signal. The reduction in signal is proportional to the amount of cAMP being produced, thus it is possible to quantify the amount of cAMP being produced on stimulation with agonist.
Test and reference compounds are prepared at 100×[final] in 100% DMSO, and diluted 1:3 using a Biomek Fx (Beckman Coulter). This is followed by an intermediate dilution to give 5×[final] in assay buffer (HBSS containing 5 mM HEPES, 0.1% (w/v) BSA). 5 μL of 5×[final] test compounds, reference compounds and buffer/DMSO control are then transferred to a 384-well white OptiPlate, containing 20 μL CHO-IP cell suspension (15,000 cells/well, prepared from frozen), and plate is incubated at room temperature for 1 hour. A cAMP standard curve is constructed for each experiment (concentration range of 10000 nM to 0.001 nM, in assay buffer) and 25 μL of each concentration added to the last two columns of the assay plate. The incubation is terminated by the addition of lysis buffer (dH2O; 0.3% (v v^−1) Tween-20) containing 20 units mL^−1 streptavidin coated donor beads and biotinylated cAMP (pre-incubated for 30 minutes) and 20 units mL^−1 anti-cAMP acceptor beads, which are added to the lysis buffer just before addition to the assay plate. The assay plate is then incubated at room temperature in the dark, for 60 minutes with gentle shaking, and read on the Envision plate reader (Perkin Elmer).
The raw data of the reference compounds, test compounds and controls are converted into cAMP concentrations, using the cAMP standard curve, in GraphPadPrism (Graph Pad Software Inc). EC50 as well as maximal values of the agonist curves are determined using a 4-parameter logistic equation. The % maximum response values of all test compounds are determined using the top of the treprostinil concentration-response curve.
(Cyclic AMP is a second messenger, typically raised through Gs and lowered through Gi signalling.)
The EC50 is the concentration at which the effect is half-maximal. Compound `CC1c2nc(-c3ccccc3)c(-c3ccccc3)nc2CCN1CCCCCCC(=O)O` (racemic) [Example 1, rac-7-(5-methyl-2,3-diphenyl-7,8-dihydropyrido[3,4-b]pyrazin-6(5H)-yl)heptanoic acid] came in with an EC50 of 275 nM. Under `Cc1ccc(-c2nc3c(nc2-c2ccc(C)cc2)C(CCCCCC(=O)O)NCC3)cc1` (racemic) [Example 2, rac-6-(2,3-Dip-tolyl-5,6,7,8-tetrahydropyrido[3,4-b]pyrazin-5-yl)hexanoic acid] stands 5 nM; under `Cc1ccc(-c2nc3c(nc2-c2ccc(C)cc2)C(CCCCCCC(=O)O)NCC3)cc1` (racemic) [Example 2.1, rac-7-(2,3-Dip-tolyl-5,6,7,8-tetrahydropyrido[3,4-b]pyrazin-5-yl)heptanoic acid], 5.4 nM. Under `Cc1ccc(-c2nc3c(nc2-c2ccc(C)cc2)C(CCCCCC(=O)O)N(C)CC3)cc1` (racemic) [Example 3.1, rac-6-(6-Methyl-2,3-dip-tolyl-5,6,7,8-tetrahydropyrido[3,4-b]pyrazin-5-yl)hexanoic acid] stands 25.9 nM. Compound `CC1c2nc(-c3ccccc3)c(-c3ccccc3)nc2CCN1CCCCCCC(=O)O` (single isomer, unassigned) [Example 1(i), (R)-7-(5-methyl-2,3-diphenyl-7,8-dihydropyrido[3,4-b]pyrazin-6(5H)-yl)heptanoic acid or (S)-7-(5-methyl-2,3-diphenyl-7,8-dihydropyrido[3,4-b]pyrazin-6(5H)-yl)heptanoic acid] yielded an EC50 of 190 nM. Compared with the last compound, the EC50 is about 7.3-fold higher.

For the compound `CC1c2nc(-c3ccccc3)c(-c3ccccc3)nc2CCN1CCCCCCC(=O)O` (single isomer, unassigned) [Example 1(ii), (R)-7-(5-methyl-2,3-diphenyl-7,8-dihydropyrido[3,4-b]pyrazin-6(5H)-yl)heptanoic acid or (S)-7-(5-methyl-2,3-diphenyl-7,8-dihydropyrido[3,4-b]pyrazin-6(5H)-yl)heptanoic acid], the EC50 stood at 710 nM. Regarding `Cc1ccc(-c2nc3c(nc2-c2ccc(C)cc2)C(C)N(CCCCC(=O)O)CC3)cc1` (stereo not drawn) [Example 1.1, 5-(5-Methyl-2,3-di-p-tolyl-7,8-dihydro-5H-pyrido[3,4-b]pyrazin-6-yl)-pentanoic acid], a half-maximal effect (EC50) was put at 1.5 nM.

In turn, `Cc1ccc(-c2nc3c(nc2-c2ccc(C)cc2)C(C)N(CCCCCC(=O)O)CC3)cc1` (stereo not drawn) [Example 1.2, 6-(5-Methyl-2,3-di-p-tolyl-7,8-dihydro-5H-pyrido[3,4-b]pyrazin-6-yl)-hexanoic acid] displayed an EC50 of 2 nM. The value for `Cc1ccc(-c2nc3c(nc2-c2ccc(C)cc2)C(CCCCCCC(=O)O)N(C)CC3)cc1` (stereo not drawn) [Example 3, 7-(6-Methyl-2,3-dip-tolyl-5,6,7,8-tetrahydropyrido[3,4-b]pyrazin-5-yl)heptanoic acid] was 2.3 nM.
